The source of these data is patent US9784747B2, “Method and kit for analyzing protein-protein interaction using nanocluster formation” (KOREA ADVANCED INSTITUTE OF SCIENCE AND TECHNOLOGY, priority 2011, dated 2017).

This assay deals with interaction between CaMKIIα and calmodulin. Kind of assay: Real-time observation of calcium-dependent nanocluster formation (CaMKIIα-CaM interaction) in cotransfected HeLa cells. Type of assay: cell-based. The following applies: ionomycin 1 mM; 80 seconds after treatment; HeLa cells cotransfected with mCherry-CaMKII[296-315]-AD and CaM-ECFP-FT; fluorescence distributed again as time passes. The protocol: To investigate whether the system of the present disclosure can be used for real-time observation of an intermolecular interaction regulated by calcium through a calcium dependent nanocluster formation, the present inventors cotransfected HeLa cells with the mCherry-CaMKII[296-315]-AD construct constructed in example 1-18 and the CaM-ECFP-FT construct constructed in example 1-19 through the method described above. Thereafter, the cells were treated with 1 mM of ionomycin as ionophore which facilitates calcium ion penetration.
Then, fluorescence was distributed again as time passes.

Take `C[C@H](CCC(=O)O)C[C@H](C)C[C@H](C)C(=O)/C=C(\O)[C@H](C)C[C@H](C)C/C=C/[C@@H](C)[C@@H](O)[C@@H](C)[C@@H](O)C[C@@H]1CC[C@@](C)([C@H]2CC[C@@](C)([C@@H](C)O)O2)O1` [ionomycin]: the “distribution and intensity of fluorescence (nanocluster formation)” value is “a strong fluorescence dot appeared in cytoplasm due to a nanocluster formation”.
